How the values were obtained:
Assay in all cases: relative viability (nuclei count vs DMSO), 5 days (fraction); higher = more cells survive
Pazopanib + Lapatinib = compound: Cc1ccc(Nc2nccc(N(C)c3ccc4c(C)n(C)nc4c3)n2)cc1S(N)(=O)=O [Pazopanib] + CS(=O)(=O)CCNCc1ccc(-c2ccc3ncnc(Nc4ccc(OCc5cccc(F)c5)c(Cl)c4)c3c2)o1 [Lapatinib] (partner 2 µM)
Procedure, shortened: (§1)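 Each reported value is a median over duplicate plates. It expresses relative viability: treated-well nuclei count divided by vehicle-well nuclei count. Lung cancer cell lines in 1536-well plates were dosed by pin tool a day after seeding, alone with one drug or with a fixed anchor-drug dose plus five library-drug doses (not always all listed) in √10 steps, and nuclei were counted after 5 days.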

Ponatinib + Luminespib = compound: Cc1ccc(C(=O)Nc2ccc(CN3CCN(C)CC3)c(C(F)(F)F)c2)cc1C#Cc1cnc2cccnn12 [Ponatinib] + CCNC(=O)c1noc(-c2cc(C(C)C)c(O)cc2O)c1-c1ccc(CN2CCOCC2)cc1 [Luminespib] (partner 0.01 µM)
Procedure, shortened: as §1

Ponatinib + Dasatinib = compound: Cc1ccc(C(=O)Nc2ccc(CN3CCN(C)CC3)c(C(F)(F)F)c2)cc1C#Cc1cnc2cccnn12 [Ponatinib] + Cc1nc(Nc2ncc(C(=O)Nc3c(C)cccc3Cl)s2)cc(N2CCN(CCO)CC2)n1 [Dasatinib] (partner 0.075 µM)
Procedure, shortened: as §1

Ponatinib + Bortezomib = compound: Cc1ccc(C(=O)Nc2ccc(CN3CCN(C)CC3)c(C(F)(F)F)c2)cc1C#Cc1cnc2cccnn12 [Ponatinib] + CC(C)C[C@H](NC(=O)[C@H](Cc1ccccc1)NC(=O)c1cnccn1)B(O)O [Bortezomib] (partner 0.002 µM)
Procedure, shortened: as §1

UMC-11 was tested, and the relative viability (Pazopanib + Lapatinib; first compound 0.01 µM) was 0.807, the relative viability (Pazopanib + Lapatinib; first compound 0.03162 µM) was 1.03 and the relative viability (Pazopanib + Lapatinib; first compound 0.1 µM) was 0.939. For the same cell line, the relative viability (Pazopanib + Lapatinib; first compound 0.3162 µM) was 1.01, the relative viability (Pazopanib + Lapatinib; first compound 1 µM) was 1.12 and the relative viability (Ponatinib + Luminespib; first compound 0.002 µM) was 1.07. The relative viability (Ponatinib + Luminespib; first compound 0.006325 µM) was 1.16, the relative viability (Ponatinib + Luminespib; first compound 0.06325 µM) was 1.04 and the relative viability (Ponatinib + Luminespib; first compound 0.2 µM) was 0.979. It also gave a relative viability (Ponatinib + Dasatinib; first compound 0.002 µM) of 0.465, a relative viability (Ponatinib + Dasatinib; first compound 0.006325 µM) of 0.451 and a relative viability (Ponatinib + Dasatinib; first compound 0.06325 µM) of 0.51. For the same cell line, the relative viability (Ponatinib + Dasatinib; first compound 0.2 µM) was 0.465, the relative viability (Ponatinib + Bortezomib; first compound 0.002 µM) was 0.653 and the relative viability (Ponatinib + Bortezomib; first compound 0.006325 µM) was 0.769. The relative viability (Ponatinib + Bortezomib; first compound 0.06325 µM) was 0.921 and the relative viability (Ponatinib + Bortezomib; first compound 0.2 µM) was 0.646.

Reference: the supplement of paper PMC10307832
